In patent US20050209278A1, “Piperidinyl- and piperazinyl-sulfonylmethyl hydroxamic acids and their use as protease inhibitors” (priority 2002, published 2005):
Structures can show the parent of a compound that is named as a salt.

Target: T1, MMP-9 (Homo sapiens, UniProt P14780)
T1 construct: made in house; host or cells: MMP-9-transfected HT1080 cells (spent media)
Assay: In vitro MMP inhibition, Ki determination (fluorogenic substrate II)
Type: biochemical
Conditions: human recombinant enzyme; 4 μM substrate II; room temperature, 1 hr
Protocol: Several hydroxamic acids and salts thereof were analyzed in in vitro assays to determine their ability to inhibit the MMP cleavage of peptide substrates. […] and IC50 constants were calculated from the assayed hydroxamic acid-MMP interactions.
Human recombinant MMP-1, MMP-2, MMP-9, MMP-13, and MMP-14 were used in this assay. All enzymes were prepared in Assignee's laboratories following usual laboratory procedures. Protocols for the preparation and use of these enzymes are available in the scientific literature. See, e.g., Enzyme Nomenclature (Academic Press, San Diego, Calif., 1992) (and the citations therein). See also, Freije et al., “Molecular cloning and expression of collagenase-3, a novel human matrix metalloproteinase produced by breast carcinomas,” J Biol. Chem., 269(24), 16766-16773 (1994).
The MMP-9 proenzyme was purified by gelatin Sepharose chromatography from spent media of MMP-9-transfected HT1080 cells provided by Dr. Howard Welgus of Washington University (St. Louis, Mo.).
All MMPs were activated using 4-aminophenylmercuric acetate (“APMA”, Sigma Chemical, St. Louis, Mo.) or trypsin. MMP-9 also was activated using human recombinant MMP-3 (purified in Assignee's laboratory following standard cloning and purification techniques).
Two fluorogenic, methoxycoumarin-containing polypeptide substrates were used in the MMP inhibition assays: [drawing 427] Here, “Dpa” is 3-(2,4-dinitrophenyl)-L-2,3-diaminopropionyl group, and “MCA” is 7-methoxycoumarin-4-yl acetyl. Substrate (I) was purchased from Baychem (Redwood City, Calif.), and substrate II was prepared Assignee's laboratory. Substrate I was used in the IC50 determination assays, while substrate II was used in the Ki determination assays. In the absence of MMP inhibitory activity, either substrate is cleaved at the Gly-Leu peptide bond. This cleavage separates the highly fluorogenic peptide from the 2,4-dinitrophenyl quencher, thus resulting in increase of fluorescent intensity.
The stock solutions of the assayed hydroxamic acids (or salts thereof) were prepared in 1% dimethyl sulfoxide (DMSO). These stock solutions were diluted in Buffer A (100 mM Tris-HCl, 100 mM NaCl, 10 mM CaCl2, 0.05% polyoxyethylene 23 lauryl ether, pH 7.5) to obtain solutions with different hydroxamic acid concentrations, i.e., assay solutions with different concentrations of the assayed MMP inhibitory compound. The experiment controls contained the same amount of Buffer A/DMSO as the assayed sample, but contained no hydroxamic acid (or salt thereof).
The assays from which the Ki determinations were made were performed as follows. The assayed hydroxamic acid samples were incubated in separate wells of untreated white polystyrene plates (Nunc Nalgene International, Rochester, N.Y.), and analyzed on a Tecan SpectraFlour Plus plate reader. The excitation wavelength was 330 nm, and the emission wavelength—420 nm. All samples (assayed hydroxamic acids and controls) were incubated in separate plate wells at room temperature for 1 hr in the presence of 4 μM of MMP substrate (II). In the absence of MMP inhibitory activity, substrate II was cleaved at the Gly-Leu bond resulting in an increase of relative fluorescence. Inhibition was observed as a reduced rate of this increase in relative fluorescence. The various hydroxamic acids were analyzed using a single low enzyme concentration with a single substrate concentration fixed at or below the Km. This protocol is a modification of method by Knight et al., FEBS Lett., 296(3), 263-266 (1992). Apparent inhibitory constants were determined by non-linear regression of reaction velocity as a function of inhibitor and enzyme concentration using Morrison's equation, as described by Kuzmic, Anal. Biochem. 286, 45-50 (2000). Modifications were made in the non-linear regression method to allow a common control reaction rate and effective enzyme concentration to be shared between all dose-response relationships on a given assay plate. […]

T1 sequence (P14780 107-707 limits assumed): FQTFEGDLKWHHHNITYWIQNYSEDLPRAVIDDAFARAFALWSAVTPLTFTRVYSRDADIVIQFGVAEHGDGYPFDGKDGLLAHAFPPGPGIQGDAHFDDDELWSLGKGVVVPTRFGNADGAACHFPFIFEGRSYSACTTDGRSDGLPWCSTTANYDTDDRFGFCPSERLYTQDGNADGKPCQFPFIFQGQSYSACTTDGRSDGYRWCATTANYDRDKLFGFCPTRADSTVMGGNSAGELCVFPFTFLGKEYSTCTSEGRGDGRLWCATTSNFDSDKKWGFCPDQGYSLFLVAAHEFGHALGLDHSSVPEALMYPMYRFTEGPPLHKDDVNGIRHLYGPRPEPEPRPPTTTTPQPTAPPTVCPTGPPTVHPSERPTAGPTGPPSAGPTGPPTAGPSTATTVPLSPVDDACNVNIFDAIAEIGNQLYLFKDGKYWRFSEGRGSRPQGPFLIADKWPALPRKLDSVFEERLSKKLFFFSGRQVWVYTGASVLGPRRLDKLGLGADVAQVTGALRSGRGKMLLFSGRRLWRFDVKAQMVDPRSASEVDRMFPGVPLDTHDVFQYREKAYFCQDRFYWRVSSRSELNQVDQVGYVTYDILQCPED

Ki | Structure (SMILES)
2.67 nM | CCCCCc1ccc(N2CCN(S(=O)(=O)C3(C(=O)NO)CCOCC3)CC2)c(F)c1 [Example 23, 4-{[4-(2-fluoro-4-pentylphenyl)piperazin-1-yl]sulfonyl}-N-hydroxytetrahydro-2H-pyran-4-carboxamide Hydrochloride]
0.712 nM | CCCCCc1ccc(N2CCN(S(=O)(=O)C3(C(=O)NO)CCN(CCOC)CC3)CC2)cc1F [Example 13, 4-{[4-(3-fluoro-4-pentylphenyl)piperazin-1-yl]sulfonyl}-N-hydroxy-1-(2-methoxyethyl)piperidine-4-carboxamide Dihydrochloride]
0.33 nM | CCCCCCCCC1CCN(S(=O)(=O)C2(C(=O)NO)CCOCC2)CC1 [Example 26, 4-(4-octyl-piperidine-1-sulfonyl)-tetrahydro-pyran-4-carboxylic Acid Hydroxyamide]
1.65 nM | COc1ccc(-c2cnc(N3CCN(S(=O)(=O)C4(C(=O)NO)CCOCC4)CC3)nc2)cc1 [Example 8, N-hydroxy-4-({4-[5-(4-methoxyphenyl)pyrimidin-2-yl]piperazin-1-yl}sulfonyl)tetrahydro-2H-pyran-4-carboxamide Hydrochloride]
1.01 nM | O=C(NO)C1(S(=O)(=O)N2CCN(c3ccc(CCC(F)(F)C(F)(F)F)cc3)CC2)CCOCC1 [Example 17, N-hydroxy-4-({4-[4-(3,3,4,4,4-pentafluorobutyl)phenyl]piperazin-1-yl}sulfonyl)tetrahydro-2H-pyran-4-carboxamide Hydrochloride]
1 nM | O=C(NO)C1(S(=O)(=O)N2CCN(c3ccc(-c4ccccc4)c(F)c3)CC2)CCOCC1 [Example 12, 4-{[4-(2-fluoro-1,1′-biphenyl-4-yl)piperazin-1-yl]sulfonyl}-N-hydroxytetrahydro-2H-pyran-4-carboxamide Hydrochloride]
20 nM | COCCOc1ccc(N2CCN(S(=O)(=O)C3(C(=O)NO)CCOCC3)CC2)cc1 [Example 14, N-hydroxy-4-({4-[4-(2-methoxyethoxy)phenyl]piperazin-1-yl}sulfonyl)tetrahydro-2H-pyran-4-carboxamide Hydrochloride]
0.5 nM | CCCCc1ccc(C2CCN(S(=O)(=O)C3(C(=O)NO)CCOCC3)CC2)s1 [Example 19, 4-{[4-(5-butylthien-2-yl)piperidin-1-yl]sulfonyl}-N-hydroxytetrahydro-2H-pyran-4-carboxamide]
1.28 nM | O=C(NO)C1(S(=O)(=O)N2CCN(c3ccc(OCC(F)(F)F)cc3)CC2)CCOCC1 [Example 2, N-hydroxy-4-({4-[4-(2,2,2-trifluoroethoxy)phenyl]piperazin-1-yl}sulfonyl)tetrahydro-2H-pyran-4-carboxamide Hydrochloride]
0.12 nM | CCCCc1ccc(C2CCN(S(=O)(=O)C3(C(=O)NO)CCN(C4CC4)CC3)CC2)nc1 [Example 24, 4-{[4-(5-butylpyridin-2-yl)piperidin-1-yl]sulfonyl}-1-cyclopropyl-N-hydroxypiperidine-4-carboxamide Hydrochloride]
0.398 nM | O=C(NO)C1(S(=O)(=O)N2CCC(c3ccc(CCC(F)(F)C(F)(F)F)cc3)CC2)CCOCC1 [Example 18, N-hydroxy-4-({4-[4-(3,3,4,4,4-pentafluorobutyl)phenyl]piperidin-1-yl}sulfonyl)tetrahydro-2H-pyran-4-carboxamide]
0.696 nM | CCCCc1cnc(N2CCN(S(=O)(=O)C3(C(=O)NO)CCOCC3)CC2)cn1 [Example 1, 4-{[4-(5-butylpyrazin-2-yl)piperazin-1-yl]sulfonyl}-N-hydroxytetrahydro-2H-pyran-4-carboxamide Dihydrochloride]

Structure (SMILES) | Ki
COCCN1CCC(C(=O)NO)(S(=O)(=O)N2CCN(c3ccc(OCCCC(F)(F)F)cc3)CC2)CC1 [Example 9, N-hydroxy-1-(2-methoxyethyl)-4-({4-[4-(4,4,4-trifluorobutoxy)phenyl]piperazin-1-yl}sulfonyl)piperidine-4-carboxamide Dihydrochloride] | 2.76 nM

Same assay, conditions: value not in parenthesis

Structure (SMILES) | Ki
CCCCCc1cnc(N2CCN(S(=O)(=O)C3(C(=O)NO)CCOCC3)CC2)s1 [Example 56] | 3.49 nM
O=C(NO)C1(S(=O)(=O)N2CCN(c3ccc(COCC(F)(F)C(F)(F)C(F)(F)C(F)F)cc3)CC2)CCOCC1 [Example 68] | 208 nM
O=C(NO)C1(S(=O)(=O)N2CCN(c3ccc(COCC(F)(F)C(F)(F)C(F)(F)F)cc3)CC2)CCOCC1 [Example 69] | 202 nM
COCCN1CCC(C(=O)NO)(S(=O)(=O)N2CCN(c3ccc(OCCCC(F)(F)F)cc3F)CC2)CC1 [Example 102] | 18.1 nM
C=CCCOC(=O)N1CCC(C(=O)NO)(S(=O)(=O)N2CCN(c3ccc(OCCCC)cc3)CC2)CC1 [Example 101] | 3.8 nM
O=C(NO)C1(S(=O)(=O)N2CCN(c3ccc(-c4ccc(Cl)cc4)cn3)CC2)CCOCC1 [Example 60] | 7.05 nM

The remaining lines, values ahead:

Ki | Structure (SMILES)
0.52 nM | CC(C)CCc1ccc(N2CCN(S(=O)(=O)C3(C(=O)NO)CCOCC3)CC2)nc1 [Example 133]
49.5 nM | CC(C)(C)N1CCC(C(=O)NO)(S(=O)(=O)N2CCN(c3ccc(OCCCC(F)(F)F)cc3F)CC2)CC1 [Example 116]
2.35 nM | COCCN1CCC(C(=O)NO)(S(=O)(=O)N2CCN(c3ccc(OCCC(C)C)cc3)CC2)CC1 [Example 148]
5.33 nM | CCCCOc1ccc(N2CCN(S(=O)(=O)C3(C(=O)NO)CCN(C(=O)OCCOC)CC3)CC2)cc1 [Example 141]
3.03 nM | CCCCOc1ccc(N2CCN(S(=O)(=O)C3(C(=O)NO)CCN(c4ccc(C)nc4)CC3)CC2)cc1 [Example 131]
2.15 nM | CCCCOc1ccc(N2CCN(S(=O)(=O)C3(C(=O)NO)CCN(c4cccnc4)CC3)CC2)cc1 [Example 154]
1.92 nM | CC(C)CCOc1ccc(N2CCN(S(=O)(=O)C3(C(=O)NO)CCN(C4CC4)CC3)CC2)cc1 [Example 128]
1.35 nM | COCCN1CCC(C(=O)NO)(S(=O)(=O)N2CCN(c3ccc(OCC(F)(F)F)cc3)CC2)CC1 [Example 119]
10.5 nM | O=C(NO)C1(S(=O)(=O)N2CCN(c3ncc(Br)cn3)CC2)CCOCC1 [Example 103]
1.5 nM | CCCCOc1ccc(N2CCN(S(=O)(=O)C3(C(=O)NO)CCN(C(=O)NCCOC)CC3)CC2)cc1 [Example 118]
15.4 nM | O=C(NO)C1(S(=O)(=O)N2CCN(c3ccc(OCCCC(F)(F)F)cc3)CC2)CCN(c2cnccn2)CC1 [Example 112]
2.15 nM | CCCCOc1ccc(N2CCN(S(=O)(=O)C3(C(=O)NO)CCN(c4ccc(OC)nc4)CC3)CC2)cc1 [Example 142]
23.2 nM | CCCCOc1ccc(N2CCN(S(=O)(=O)C3(C(=O)NO)CCN(c4nccc(C(F)(F)F)n4)CC3)CC2)cc1 [Example 130]
0.429 nM | CCCCOc1ccc(N2CCN(S(=O)(=O)C3(C(=O)NO)CCN(C(=O)N4CCOCC4)CC3)CC2)cc1 [Example 124]
447 nM | COc1ccc(N2CCN(S(=O)(=O)C3(C(=O)NO)CCOCC3)CC2)nc1 [Example 109]
2.72 nM | CCCCOc1ccc(N2CCN(S(=O)(=O)C3(C(=O)NO)CCN(C(=S)N(C)C)CC3)CC2)cc1 [Example 123]
11.9 nM | O=C(NO)C1(S(=O)(=O)N2CCN(c3ncc(Br)cn3)CC2)CCOCC1 [Example 104]
9.86 nM | CCCCOc1ccc(N2CCN(S(=O)(=O)C3(C(=O)NO)CCN(c4ncc(CC)cn4)CC3)CC2)cc1 [Example 155]
19 nM | CCCCOc1ccc(N2CCN(S(=O)(=O)C3(C(=O)NO)CCN4CCCC4C3)CC2)cc1F (stereo not shown) [Example 126]
5.09 nM | Cc1ccc(N2CCN(S(=O)(=O)C3(C(=O)NO)CCOCC3)CC2)nc1 [Example 138]
1.76 nM | CCCCOc1ccc(N2CCN(S(=O)(=O)C3(C(=O)NO)CCN(c4cnccn4)CC3)CC2)cc1 [Example 140]
